Measurements: paper PMC3969779 (Journal of molecular biology, 2013)
Ends that are not written are not given here.

T1: BRPF1 bromodomain (Homo sapiens, UniProt P55201)
T1 sequence (P55201 629-742): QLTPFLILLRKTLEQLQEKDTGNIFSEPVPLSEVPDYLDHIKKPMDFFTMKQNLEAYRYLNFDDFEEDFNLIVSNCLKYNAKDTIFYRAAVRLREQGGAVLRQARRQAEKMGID

T2: Histone H3K14ac peptide (8-19) (Homo sapiens)
T2 chain: RKSTGGK(Ac)APRKQ

T3: Histone H4K8ac peptide (4-17) (Homo sapiens, H4 K8 acetylated)
T3 chain: GKGGKGLGKGGAKR

T4: Histone H4K12ac peptide (4-17) (Homo sapiens)
T4 chain: GKGGKGLGK(Ac)GGAKR

T5: Histone H2AK5ac peptide (1-12) (Homo sapiens)
T5 chain: SGRGK(Ac)QGGKARA

B1: BRPF1 bromodomain 629-742 (protein)
chain: QLTPFLILLRKTLEQLQEKDTGNIFSEPVPLSEVPDYLDHIKKPMDFFTMKQNLEAYRYLNFDDFEEDFNLIVSNCLKYNAKDTIFYRAAVRLREQGGAVLRQARRQAEKMGID

Experiments:
[1] = target: T1, BRPF1 bromodomain; assay: Isothermal titration calorimetry; type: binding
[2] = target: T1, BRPF1 bromodomain; assay: NMR titration; type: binding
[3] = target: T2, Histone H3K14ac peptide (8-19); assay: NMR titration
[4] = target: T3, Histone H4K8ac peptide (4-17); assay: NMR titration
[5] = target: T4, Histone H4K12ac peptide (4-17); assay: NMR titration
[6] = target: T5, Histone H2AK5ac peptide (1-12); assay: NMR titration

Row | Molecule | Kd [1] [µM] | Kd [2] [µM] | Kd [3] [µM] | Kd [4] [µM] | Kd [5] [µM] | Kd [6] [µM]
1 | CC(=O)NCCCC[C@H](NC(=O)CNC(=O)CNC(=O)[C@@H](NC(=O)[C@H](CO)NC(=O)[C@H](CCCCN)NC(=O)[C@@H](N)CCCNC(=N)N)[C@@H](C)O)C(=O)N[C@@H](C)C(=O)N1CCC[C@H]1C(=O)N[C@@H](CCCNC(=N)N)C(=O)N[C@@H](CCCCN)C(=O)N[C@@H](CCC(N)=O)C(N)=O [H3K14ac (8-19)] | 626 ± 27 | 597 ± 53 |  |  |  | 
2 | CC(=O)NCCCC[C@H](NC(=O)CNC(=O)CNC(=O)[C@H](CCCCN)NC(=O)CN)C(=O)NCC(=O)N[C@@H](CC(C)C)C(=O)NCC(=O)N[C@@H](CCCCN)C(=O)NCC(=O)NCC(=O)N[C@@H](C)C(=O)N[C@@H](CCCCN)C(=O)N[C@@H](CCCNC(=N)N)C(N)=O [H4K8ac (4-17)] |  | 697 ± 57 |  |  |  | 
3 | CC(=O)NCCCC[C@H](NC(=O)CNC(=O)[C@H](CC(C)C)NC(=O)CNC(=O)[C@H](CCCCN)NC(=O)CNC(=O)CNC(=O)[C@H](CCCCN)NC(=O)CN)C(=O)NCC(=O)NCC(=O)N[C@@H](C)C(=O)N[C@@H](CCCCN)C(=O)N[C@@H](CCCNC(=N)N)C(N)=O [H4K12ac (4-17)] | 86.5 ± 9.1 | 74 ± 18 |  |  |  | 
4 | SGRGK(Ac)QGGKARA-NH2 [H2AK5ac (1-12)] | 48.5 ± 1.5 | 57 ± 4 |  |  |  | 
5 | B1 |  |  | 597 | 697 | 74 | 57
